Results on 10 compounds are retold here after article PMC7833600 (The Journal of Biological Chemistry, 2021).

Non-standard residues stand in square brackets, D forms with d. Residues, ends and D or L forms follow the SMILES beside them. No end group written: not given here. *: point of attachment. Dnp = O=[N+]([O-])c1ccc(*)c([N+](=O)[O-])c1; Sta = CC(C)C[C@H](N)[C@@H](O)CC(=O)O; Mca = COc1ccc2c(CC(=O)*)cc(=O)oc2c1; Isovaleryl = CC(C)CC(=O)*

Test [1] concerns the target T1, human ACE2 (Homo sapiens, UniProt Q9BYF1). The format is biochemical.
Test [2] deals with T1, human ACE2. Put plainly: biochemical. Particulars: IC50 for Competitive substrates, 1 h, 26 °C.
Test [3] has as its target T1, human ACE2. The format is biochemical. This is another data set of the same source.
Test [4] concerns ACE2. The note with it: cited from earlier work.

T1 sequence (Q9BYF1 18-740 limits assumed): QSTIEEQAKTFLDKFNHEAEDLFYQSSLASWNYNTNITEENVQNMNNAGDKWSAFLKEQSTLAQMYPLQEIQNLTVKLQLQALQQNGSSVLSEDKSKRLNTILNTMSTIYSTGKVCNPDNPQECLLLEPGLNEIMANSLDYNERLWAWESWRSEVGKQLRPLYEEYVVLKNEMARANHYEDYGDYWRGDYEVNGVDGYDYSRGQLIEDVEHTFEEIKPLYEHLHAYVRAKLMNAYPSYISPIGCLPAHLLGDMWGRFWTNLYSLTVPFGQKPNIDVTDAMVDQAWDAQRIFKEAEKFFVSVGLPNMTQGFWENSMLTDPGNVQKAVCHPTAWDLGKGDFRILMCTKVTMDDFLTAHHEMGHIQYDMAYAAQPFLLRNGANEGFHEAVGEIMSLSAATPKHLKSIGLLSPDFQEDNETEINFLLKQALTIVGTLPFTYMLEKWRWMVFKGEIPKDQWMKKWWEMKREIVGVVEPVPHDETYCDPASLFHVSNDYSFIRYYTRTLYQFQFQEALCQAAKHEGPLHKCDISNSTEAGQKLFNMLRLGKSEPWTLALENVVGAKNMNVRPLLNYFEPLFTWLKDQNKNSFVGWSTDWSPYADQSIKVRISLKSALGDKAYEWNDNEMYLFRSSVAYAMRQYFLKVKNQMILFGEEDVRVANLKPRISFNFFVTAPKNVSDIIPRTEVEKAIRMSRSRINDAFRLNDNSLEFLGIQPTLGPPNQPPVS

On to `NCCc1ccc(S(=O)(=O)F)cc1` [AEBSF], for which, in test [1], the “effect on ACE2 activity” value is “no effects”.
As to `CC(C)C[C@H](N[C@@H](Cc1cncn1Cc1cc(Cl)cc(Cl)c1)C(=O)O)C(=O)O` [MLN-4760], in test [1], the “effect on ACE2 activity” value is recorded as “completely blocked” and the “effect on the spike / RBD mediated enhancement of ACE2 cleavage” value is “abolished”.
In turn, `N=C(N)NCCC[C@H](N)C(=O)N1CCC[C@H]1C(=O)N1CCC[C@H]1C(=O)NCC(=O)N[C@@H](Cc1ccccc1)C(=O)N[C@@H](CO)C(=O)N1CCC[C@H]1C(=O)N[C@@H](Cc1ccccc1)C(=O)O` [desBK, des-Arg^9-bradykinin] gave an IC50 in test [2] of 1430 ± 655 µM.
Take `CC(=O)N[C@@H](CC(C)C)C(=O)N[C@@H](CC(C)C)C(=O)N[C@H](C=O)CCCNC(=N)N` [leupeptin]: the “effect on ACE2 activity” value in test [1] is “no effects”.
Same read-out and setting: in the case of `CC(C)CC(=O)N[C@H](C(=O)N[C@H](C(=O)N[C@@H](CC(C)C)[C@@H](O)CC(=O)N[C@@H](C)C(=O)N[C@@H](CC(C)C)[C@@H](O)CC(=O)O)C(C)C)C(C)C` [pepstatin A] (Isovaleryl-VV[Sta]A[Sta]-OH) it was “no effects”.
With Mca-RPPGFSAFK(Dnp)-OH, in test [3], the “amount of substrate cleaved by ACE2” value is about 0.05 µM.
The same measure, in the same setting: in the case of Mca-YVADAPK(Dnp)-OH it was about 0.5 µM.
For the compound QRPRLSHKGPMP↓F [Apelin-13], the “k cat/Km of ACE2 cleavage” value in test [4] is over 1e+06 M⁻¹ s⁻¹.
The compound RPPGFSPFR [BK, bradykinin] displayed an IC50 in test [2] of 680 ± 87 µM.
For the compound YGGFLRRIRPKL↓K [dynorphin A 1-13], the “k cat/Km of ACE2 cleavage” value in test [4] was over 1e+06 M⁻¹ s⁻¹.

For orientation: IC50 means the concentration needed to halve the response being measured. Read a high IC50 as weaker potency.
